Each structure is given as a SMILES string. Read-outs that look alike come from different tables or passages of the source.

The values below come from patent US9458141B2, “Low molecular weight thyroid stimulating hormone receptor (TSHR) agonists” (The United States of America, as represented by the …, priority 2008, dated 2016).

This experiment concerns the target T1, human TSHR (Homo sapiens, UniProt P16473).
T1 construct: expressed in transfected cells
The experiment is described as follows: Homogeneous Time Resolved Fluorescence (HTRF) cAMP assay, TSHR cell line. It counts as cell-based. The note with it: for Maximum Activity compared to TSH: 100% activity = response of 30 mU/ml TSH, 0% = DMSO control, in %; for AC50: HTRF cAMP, TSHR cell line, 30 minute incubation; for Emax: read-out: Maximum Activity compared to TSH, 100% activity = response of 30 mU/ml TSH, 0% = DMSO control.

T1 sequence (P16473 21-764): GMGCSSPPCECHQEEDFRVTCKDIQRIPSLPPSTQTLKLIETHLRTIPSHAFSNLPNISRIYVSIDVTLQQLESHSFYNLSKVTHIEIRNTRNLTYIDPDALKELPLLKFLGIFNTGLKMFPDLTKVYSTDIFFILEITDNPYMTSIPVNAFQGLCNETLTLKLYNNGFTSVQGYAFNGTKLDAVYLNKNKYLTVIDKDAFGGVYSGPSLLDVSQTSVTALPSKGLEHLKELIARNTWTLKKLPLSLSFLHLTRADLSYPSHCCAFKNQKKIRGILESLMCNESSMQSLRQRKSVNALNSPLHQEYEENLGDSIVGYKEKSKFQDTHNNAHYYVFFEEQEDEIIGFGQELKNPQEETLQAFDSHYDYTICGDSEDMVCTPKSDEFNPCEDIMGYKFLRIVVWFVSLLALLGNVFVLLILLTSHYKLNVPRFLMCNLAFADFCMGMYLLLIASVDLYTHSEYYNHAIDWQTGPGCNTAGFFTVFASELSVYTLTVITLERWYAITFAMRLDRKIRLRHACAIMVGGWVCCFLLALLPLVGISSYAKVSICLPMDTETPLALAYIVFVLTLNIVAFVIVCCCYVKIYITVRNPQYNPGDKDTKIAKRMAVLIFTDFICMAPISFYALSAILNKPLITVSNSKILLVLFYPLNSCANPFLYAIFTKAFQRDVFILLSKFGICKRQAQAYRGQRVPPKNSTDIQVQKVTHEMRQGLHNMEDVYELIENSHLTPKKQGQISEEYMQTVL

In general, AC50 refers to the midpoint of the concentration-response curve, whichever way the signal moves. For `COc1ccc(C(=O)N(Cc2ccco2)Cc2cccs2)c(O)c1` [Structure 112], the “Maximum Activity compared to TSH” value amounted to 60.92. Moreover, where the note is “read-out: AC50”, the AC50 is 15.8 µM. As for `O=C(c1ccccc1O)N(Cc1ccco1)Cc1cccs1` [Structure 113], the Emax was 63.8%. Besides, under “read-out: AC50”, the AC50 came out at 39.8 µM. As for `COc1ccc(C(=O)N(Cc2ccccc2)Cc2ccccc2)c(O)c1` [Structure 114], the “Maximum Activity compared to TSH” value is recorded as 51.15. The AC50 (read-out: AC50) was determined as 25.1 µM. On the same counts, the results for `COc1ccc(C2Nc3ccccc3C(=O)N2Cc2ccccn2)cc1COc1ccc(NC(C)=O)cc1` (stereo not drawn) [Structure 115] are 66.81 and 39.8 µM. `COc1ccc(-c2nc3ccccc3c(=O)n2Cc2ccc(CNC(=O)CO)cc2)cc1COc1ccc(NC(C)=O)cc1` [Structure 116]: the Emax was 54.6%. In addition, under “read-out: AC50”, the AC50 came out at 35.5 µM. Turning to `COc1ccc(CN(Cc2ccccc2)C(=O)c2ccncc2)cc1COc1ccc(NC(C)=O)cc1` [Structure 117], the “Maximum Activity compared to TSH” value is 87.19. In addition, the AC50 (read-out: AC50) worked out at 44.7 µM. The matching figures for `COc1ccc(C(=O)N(Cc2ccccc2)Cc2ccco2)c(O)c1` [Structure 118]: 96.91 and 28.2 µM.

On to `COc1ccc(C2Nc3ccc(Cl)cc3C(=O)N2Cc2ccccc2)cc1COc1ccc(NC(C)=O)cc1` (stereo not drawn) [Structure 119], for which the “Maximum Activity compared to TSH” value is recorded as 56.31. Under “read-out: AC50”, the AC50 was 14.1 µM. As for `COc1ccc(C(=O)N(Cc2ccccc2)Cc2ccccc2)cc1COc1ccc(NC(C)=O)cc1` [Structure 120], the Emax worked out at 40.5%. Besides, the AC50 (read-out: AC50) was found to be 15.8 µM. Regarding `COc1ccc(C(=O)N(Cc2ccco2)Cc2ccco2)c(O)c1` [Structure 121], the “Maximum Activity compared to TSH” value was found to be 38.00. For the same molecule, the AC50 (read-out: AC50) stood at 39.8 µM. For `COc1ccc(C(=O)N(Cc2ccco2)Cc2ccco2)c(O)c1` [Structure 122], the “Maximum Activity compared to TSH” value was found to be 61.90. In addition, the AC50 (read-out: AC50) amounted to 50.1 µM. The matching figures for `COc1ccc(C2Nc3ccc(Cl)cc3C(=O)N2Cc2ccccc2)cc1COc1ccc(NC(C)=O)cc1` (stereo not drawn) [Structure 123]: 83.18 and 14.1 µM.

For `COc1ccc(CN(Cc2ccccc2)C(=O)c2ccc(OC)cc2O)cc1` [Structure 124], the “Maximum Activity compared to TSH” value was 62.73. Besides, the AC50 (read-out: AC50) was 31.6 µM.

Turning to `COc1ccc(C2Nc3ccccc3C(=O)N2Cc2ccncc2)cc1COc1ccc(NC(C)=O)cc1` (stereo not drawn) [Structure 125], the Emax was 56.4%. The AC50 (read-out: AC50) was determined as 39.8 µM. For the molecule `COc1ccc(-c2nc3ccccc3c(=O)n2Cc2ccc(CNC(=O)CO)cc2)cc1COc1ccc(NC(C)=O)cc1` [Structure 126], the “Maximum Activity compared to TSH” value stood at 36.00. Moreover, under “read-out: AC50”, the AC50 amounted to 17.8 µM. As to `COc1ccc(C2Nc3ccccc3C(=O)N2Cc2ccccc2)cc1COc1cccc(C)c1` (stereo not drawn) [Structure 127], the Emax is 38%. For the same molecule, for the setting “read-out: AC50”, the AC50 worked out at 14.1 µM. Regarding `COc1ccc(C2Nc3ccccc3C(=O)N2Cc2ccc(CNC(=O)CO)cc2)cc1COc1ccc(NC(C)=O)cc1` (stereo not drawn) [Structure 128], the “Maximum Activity compared to TSH” value was determined as 69.13. For the same molecule, the AC50 (read-out: AC50) was 39.8 µM.

As for `O=C(c1ccccc1O)N(Cc1ccccc1)Cc1ccccc1` [Structure 129], the “Maximum Activity compared to TSH” value is 51.77. Further, under “read-out: AC50”, the AC50 came out at 28.2 µM.

On to `COc1ccc(CN(Cc2ccccc2)C(=O)COC(C)=O)cc1COc1ccc(NC(C)=O)cc1` [Structure 130], for which the “Maximum Activity compared to TSH” value was found to be 53.70. The AC50 (read-out: AC50) amounted to 50.1 µM. On the same counts, the results for `COc1ccc(C(=O)N(Cc2ccccc2)Cc2ccccc2)c(O)c1` [Structure 131] are 99.01 and 35.5 µM. On the same counts, the results for `COc1ccc(C2Nc3ccccc3C(=O)N2Cc2ccncc2)cc1COc1ccc(NC(C)=O)cc1` (stereo not drawn) [Structure 132] are 44.00 and 31.6 µM. For the molecule `O=C(c1ccccc1O)N(Cc1cccs1)Cc1cccs1` [Structure 133], the Emax worked out at 55.3%. Besides, the half-maximal activity concentration (AC50) (read-out: AC50) was 31.6 µM. Regarding `COc1ccc(CNc2ccccc2C(=O)NCc2ccccc2)cc1COc1ccc(NC(C)=O)cc1` [Structure 134], the “Maximum Activity compared to TSH” value came to 30.50. In addition, for the setting “read-out: AC50”, the AC50 is 8.91 µM. `COc1ccc(CN(Cc2ccccc2)C(=O)Nc2ccccc2)cc1COc1ccc(NC(C)=O)cc1` [Structure 135]: the “Maximum Activity compared to TSH” value worked out at 48.07. Take `COc1ccc(CN(Cc2ccccc2)C(=O)c2ccc(OC)cc2O)cc1` [Structure 136]: the “Maximum Activity compared to TSH” value stood at 37.00. The AC50 (read-out: AC50) is 28.2 µM. In the case of `COc1ccc(C2NC(=O)c3ccccc3N2)cc1COc1ccc(NC(C)=O)cc1` (stereo not drawn) [Structure 137], the half-maximal activity concentration (AC50) result was “inactive”. Consider `COc1ccc(C2Nc3ccccc3C(=O)N2C2CCCC2)cc1COc1ccc(NC(C)=O)cc1` (stereo not drawn) [Structure 138], for which the Emax stood at 31.5%. Also, the concentration at half-maximal activity (AC50) (read-out: AC50) came to 20 µM. Regarding `COc1ccc(C2Nc3ccccc3C(=O)N2Cc2ccccc2C)cc1COc1ccc(NC(C)=O)cc1` (stereo not drawn) [Structure 139], the AC50 entry was “inactive”.

Turning to `COc1ccc(C2Nc3ccccc3C(=O)N2Cc2ccccc2)cc1COc1ccc(Cl)cc1` (stereo not drawn) [Structure 140], the AC50 entry was “inactive”. Same read-out and setting: for `COc1ccc(C2Nc3ccccc3C(=O)N2Cc2ccco2)cc1COc1c(C)cccc1C` (stereo not drawn) [Structure 141] the value was “inactive”. Regarding `O=C(c1ccccc1O)N(Cc1ccccc1)Cc1cccs1` [Structure 142], the Emax is 34%. Moreover, the AC50 (read-out: AC50) was found to be 20 µM. Consider `CC(C)c1ccc(C2C3=C(CC(c4ccco4)CC3=O)Nc3nc(C(F)(F)F)nn32)cc1` (stereo not drawn) [Structure 143], for which the AC50 entry was “inactive”. Same read-out and setting: in the case of `CC(=O)Nc1ccc(OCc2cccc(C3Nc4ccccc4C(=O)N3Cc3ccco3)c2)cc1` (stereo not drawn) [Structure 144] it was “inactive”; in that of `COc1ccc(CN(Cc2ccccc2)C(=O)CN2CCN(C)CC2)cc1COc1ccc(NC(C)=O)cc1` [Structure 145], “inactive”; in that of `COc1ccc(C2Nc3ccccc3C(=O)N2CCCN(C)C)cc1COc1ccc(NC(C)=O)cc1` (stereo not drawn) [Structure 146], “inactive”. On the same count and under the same terms, for `O=C1CC(c2ccco2)CC2=C1C(c1cccnc1)n1nc(C(F)(F)F)nc1N2` (stereo not drawn) [Structure 147] the value was “inactive”; for `O=C1c2ccccc2NC(c2cc(Br)c3c(c2)OCO3)N1Cc1ccco1` (stereo not drawn) [Structure 148], “inactive”.

In the case of `CC(=O)Nc1cccc(OCc2cccc(C3Nc4ccccc4C(=O)N3Cc3ccco3)c2)c1` (stereo not drawn) [Structure 149], the AC50 entry was “inactive”. Same read-out and setting: in the case of `COc1ccc(C2Nc3ccccc3CN2Cc2ccco2)cc1COc1cccc(NC(C)=O)c1` (stereo not drawn) [Structure 150] it was “inactive”; in that of `COc1ccc(C2Nc3ccccc3C(=O)N2Cc2ccco2)cc1COc1cccc(NC(C)=O)c1` (stereo not drawn) [Structure 151], “inactive”; in that of `COc1ccc(C2Nc3ccccc3C(=O)N2Cc2ccccc2)cc1COc1ccc(F)cc1` (stereo not drawn) [Structure 152], “inactive”. The same measure, in the same setting: in the case of `Nc1ccccc1C(=O)NCc1ccco1` [Structure 153] it was “inactive”. On the same count and under the same terms, for `O=C(c1ccccc1O)N(Cc1ccco1)Cc1cccs1` [Structure 154] the value was “inactive”. `COc1ccc(-c2nc3ccc(NC(C)=O)cc3c(=O)n2Cc2cccc(Cl)c2)cc1COc1ccc(NC(C)=O)cc1` [Structure 155]: the “Maximum Activity compared to TSH” value is given as 25.50. For the same molecule, the concentration at half-maximal activity (AC50) (read-out: AC50) came out at 12.6 µM.

With `COc1ccc(C2Nc3ccccc3C(=O)N2Cc2ccco2)cc1` (stereo not drawn) [Structure 156], the half-maximal activity concentration (AC50) result is “inactive”. Still for that read-out and setting: in the case of `O=C1c2ccccc2NC(c2ccccc2O)N1Cc1ccccc1` (stereo not drawn) [Structure 157] it was “inactive”; in that of `COc1ccc2c(c1OC)C(=O)N1c3ccccc3C(=O)N(Cc3ccco3)C21` (stereo not drawn) [Structure 158], “inactive”; in that of `CC(=O)Nc1ccc(OCc2cccc(-c3nc4ccccc4c(=O)n3Cc3ccco3)c2)cc1` [Structure 159], “inactive”. Take `COc1ccc(C(=O)C2C(=O)C(=O)N(Cc3ccco3)C2c2cccs2)cc1` (stereo not drawn) [Structure 160]: the Emax is 28%. In addition, the AC50 (read-out: AC50) stood at 50.1 µM. Consider `COc1ccc(CN(Cc2ccccc2)C(C)=O)cc1COc1ccc(NC(C)=O)cc1` [Structure 161], for which the AC50 result was “inactive”. With `COc1ccc(C2Nc3ccccc3C(=O)N2Cc2ccco2)cc1COc1c(C)cccc1C` (stereo not drawn) [Structure 162], the AC50 result is “inactive”. As to `COc1ccc(C2Nc3ccccc3C(=O)N2Cc2ccccc2)cc1Oc1ccc(NC(C)=O)cc1` (stereo not drawn) [Structure 163], the half-maximal activity concentration (AC50) result is “inactive”.

Consider `COc1ccc(C2Nc3ccccc3C(=O)N2Cc2ccccc2)cc1COc1cccc(C(F)(F)F)c1` (stereo not drawn) [Structure 164], for which the AC50 result is “inactive”.

For `CC(=O)Nc1ccc(OCc2cccc(C3Nc4ccccc4C(=O)N3Cc3ccco3)c2)cc1` (stereo not drawn) [Structure 165], the AC50 result was “inactive”. Regarding `COc1ccc(CN(Cc2ccccc2)C(=O)c2ccc(NC(C)=O)cc2)cc1COc1ccc(NC(C)=O)cc1` [Structure 166], the AC50 result was “inactive”.

Take `COc1ccc(C(=O)N(Cc2ccccc2)Cc2ccccc2)cc1COc1ccc(NC(C)=O)cc1` [Structure 167]: the “Maximum Activity compared to TSH” value came to 24.50. The AC50 (read-out: AC50) came to 14.1 µM. In the case of `COc1ccc(C(=O)N(Cc2ccccc2)Cc2ccc(OC)c(COc3ccc(NC(C)=O)cc3)c2)c(O)c1` [Structure 168], the AC50 entry was “inactive”.

For the molecule `COc1ccc(CN(Cc2ccccc2)C(=O)c2ccccc2O)cc1` [Structure 169], the Emax came to 34%. For the same molecule, for the setting “read-out: AC50”, the AC50 was 50.1 µM.

Regarding `COc1ccc(C2Nc3ccccc3C(=O)N2Cc2ccccc2)cc1COc1ccc(C#N)cc1` (stereo not drawn) [Structure 170], the AC50 entry was “inactive”. Same read-out and setting: for `O=C1CC(c2ccco2)CC2=C1C(c1cccnc1)n1nc(C(F)(F)F)nc1N2` (stereo not drawn) [Structure 171] the value was “inactive”.
